Test in all cases: biochemical
Holding throughout (set-up): Eurofins DiscoverX kinase panel, competitive binding assay at 1 uM, percent of DMSO control
Conditions in all cases: competitive binding, percent of DMSO control

For one assay, the target named is ERN1 (Homo sapiens, UniProt O75460). The procedure, abridged: (§1)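 Single-point profiling at 1 µM compound in a competition-binding format against 96 kinases, read out as POC relative to control; n = 1.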
A further assay addresses T1, PLK4 (Homo sapiens, UniProt O00444).
T1 sequence (O00444 1-970): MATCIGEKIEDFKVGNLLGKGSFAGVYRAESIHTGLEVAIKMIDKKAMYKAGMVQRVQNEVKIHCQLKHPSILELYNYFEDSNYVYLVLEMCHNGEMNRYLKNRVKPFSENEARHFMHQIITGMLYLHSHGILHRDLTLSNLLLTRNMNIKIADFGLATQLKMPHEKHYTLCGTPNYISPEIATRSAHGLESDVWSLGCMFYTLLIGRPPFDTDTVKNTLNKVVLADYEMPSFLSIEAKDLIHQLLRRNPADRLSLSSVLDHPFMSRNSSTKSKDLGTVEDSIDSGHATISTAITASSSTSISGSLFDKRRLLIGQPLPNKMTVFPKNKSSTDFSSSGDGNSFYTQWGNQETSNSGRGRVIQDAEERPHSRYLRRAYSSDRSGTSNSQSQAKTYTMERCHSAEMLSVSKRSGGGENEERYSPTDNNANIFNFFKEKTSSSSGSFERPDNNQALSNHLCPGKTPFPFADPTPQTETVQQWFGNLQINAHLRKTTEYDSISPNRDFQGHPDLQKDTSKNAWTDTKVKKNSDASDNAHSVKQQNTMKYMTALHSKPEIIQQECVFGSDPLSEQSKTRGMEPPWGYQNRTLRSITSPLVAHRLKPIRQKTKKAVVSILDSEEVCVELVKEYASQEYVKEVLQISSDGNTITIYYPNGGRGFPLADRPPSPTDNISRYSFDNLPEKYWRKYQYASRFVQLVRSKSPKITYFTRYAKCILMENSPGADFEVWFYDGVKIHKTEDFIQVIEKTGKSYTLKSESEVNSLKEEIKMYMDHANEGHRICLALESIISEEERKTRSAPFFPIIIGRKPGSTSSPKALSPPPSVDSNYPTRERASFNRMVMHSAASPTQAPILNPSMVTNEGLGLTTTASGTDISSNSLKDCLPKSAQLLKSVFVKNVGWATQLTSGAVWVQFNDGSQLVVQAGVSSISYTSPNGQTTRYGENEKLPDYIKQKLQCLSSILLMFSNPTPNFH
The procedure, abridged:
as §1

In a further assay the target is T2, GRK1 (Homo sapiens, UniProt Q15835).
T2 sequence (Q15835 1-563): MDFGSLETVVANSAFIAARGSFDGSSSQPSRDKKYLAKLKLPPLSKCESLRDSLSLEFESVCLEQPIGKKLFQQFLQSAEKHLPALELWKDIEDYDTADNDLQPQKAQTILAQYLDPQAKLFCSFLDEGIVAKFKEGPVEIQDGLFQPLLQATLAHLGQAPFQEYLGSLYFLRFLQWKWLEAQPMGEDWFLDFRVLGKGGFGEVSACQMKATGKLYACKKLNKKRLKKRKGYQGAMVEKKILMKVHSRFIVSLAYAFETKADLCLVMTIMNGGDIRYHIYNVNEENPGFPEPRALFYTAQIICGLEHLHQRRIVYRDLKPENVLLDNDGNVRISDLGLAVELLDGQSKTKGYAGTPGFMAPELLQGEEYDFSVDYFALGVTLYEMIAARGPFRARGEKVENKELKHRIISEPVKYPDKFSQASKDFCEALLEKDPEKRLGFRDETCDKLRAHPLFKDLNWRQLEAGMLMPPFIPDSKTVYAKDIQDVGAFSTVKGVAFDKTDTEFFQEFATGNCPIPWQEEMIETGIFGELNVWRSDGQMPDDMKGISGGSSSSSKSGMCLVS
The procedure, abridged: as §1

[1] abbreviates: read-out: Kinome Profiling performed by Eurofins DiscoverX / AM-0277, 1.0 µM / POC.
The mark [2] stands for this setting: read-out: Kinome Profiling performed by Eurofins DiscoverX / AM-1882, 1.0 µM / POC.
[3] abbreviates: read-out: Kinome Profiling performed by Eurofins DiscoverX / AM-5308, 1.0 µM / POC.

Molecules are shown by their SMILES. Where two headings read alike, the source gives them in different places.

Chain of ERN1 (O75460 whole entry): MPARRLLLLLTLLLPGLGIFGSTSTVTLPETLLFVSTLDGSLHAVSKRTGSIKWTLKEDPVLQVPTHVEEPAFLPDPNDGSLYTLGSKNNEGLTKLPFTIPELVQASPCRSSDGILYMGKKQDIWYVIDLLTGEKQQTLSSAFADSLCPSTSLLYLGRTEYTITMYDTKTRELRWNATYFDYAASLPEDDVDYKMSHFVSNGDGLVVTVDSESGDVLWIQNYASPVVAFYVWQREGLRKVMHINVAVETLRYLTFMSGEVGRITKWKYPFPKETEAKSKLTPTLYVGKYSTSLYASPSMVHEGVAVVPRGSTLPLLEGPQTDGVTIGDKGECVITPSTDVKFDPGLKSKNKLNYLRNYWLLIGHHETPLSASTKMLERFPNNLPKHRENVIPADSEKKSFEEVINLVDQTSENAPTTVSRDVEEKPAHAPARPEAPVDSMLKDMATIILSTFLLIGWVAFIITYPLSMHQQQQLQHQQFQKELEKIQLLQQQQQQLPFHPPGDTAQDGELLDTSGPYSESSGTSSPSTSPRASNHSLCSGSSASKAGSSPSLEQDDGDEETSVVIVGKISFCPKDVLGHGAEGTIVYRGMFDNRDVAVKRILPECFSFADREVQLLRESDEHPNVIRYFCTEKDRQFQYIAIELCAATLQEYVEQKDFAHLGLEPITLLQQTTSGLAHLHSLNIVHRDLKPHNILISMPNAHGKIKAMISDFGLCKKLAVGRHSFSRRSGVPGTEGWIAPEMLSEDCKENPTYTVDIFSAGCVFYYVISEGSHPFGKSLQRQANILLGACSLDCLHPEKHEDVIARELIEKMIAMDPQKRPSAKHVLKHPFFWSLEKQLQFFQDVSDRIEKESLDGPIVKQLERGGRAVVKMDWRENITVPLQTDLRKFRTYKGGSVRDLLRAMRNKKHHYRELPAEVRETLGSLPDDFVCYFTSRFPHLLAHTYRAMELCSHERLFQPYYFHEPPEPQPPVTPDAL

With `CC(C)(CO)Nc1ccc(C(=O)Nc2cccc(S(=O)(=O)C3CCCC3)c2)c(N2CCC3(CC2)CC3)n1` [AM-0277], the remaining activity at 1 µM at ERN1 (setting [1]) worked out at 100%; on PLK4 (setting [1]) it was 100%; at GRK1 (setting [1]), 81%.

`CC(C)(C)NS(=O)(=O)c1cccc(NC(=O)c2ccc(S(=O)(=O)NC(C)(C)C)cc2N2CCC3(CC2)CC3)c1` [AM-1882]: the remaining activity at 1 µM at ERN1 (setting [2]) came out at 100%; at PLK4 (setting [2]), 93.5%; on GRK1 (setting [2]) it was 98.5%.

Consider `C[C@@H]1CN(c2cccc(NC(=O)c3ccc(NS(=O)(=O)CCO)cc3N3CCC4(CC3)CC4)n2)CCO1` [AM-5308], for which the remaining activity at 1 µM is 80% at ERN1 (setting [3]), 87.5% on PLK4 (setting [3]) and 91% on GRK1 (setting [3]).
